Source: patent US7998989B2, “2-Imino-1,3-thiazoline-based compounds and T-type calcium channel inhibitors containing the same” (Korea Institute of Science and Technology, priority 2007, dated 2011)
Like-named read-outs stand apart in the source and are kept apart here.

Assays:
[1] = target: T1, α1G T-type calcium channel (Homo sapiens, UniProt O43497); assay: Assay for % inhibiting activity against T-type calcium channel using FDSS6000 (fluo-3 calcium imaging, KCl activation); format: cell-based
T1 construct: host or cells: HEK293
Method in brief: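 HEK293 cells stably expressing α1G and Kir2.1 loaded with 5 μM fluo-3/AM, then in HEPES buffer (pH 7.4) with 10 mM CaCl2. Compound applied 75 s before 75 mM KCl; intracellular Ca2+ read as […] area, % inhibition relative to untreated control.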

[2] = 10 μM, FDSS (% inhibition), comparative compounds where R6 is a phenyl group, read-out: FDSS
[3] = HEK293, 10 μM, HEK293 cells stably expressing α1G T-type calcium channel and Kir2.1, compounds of the examples, read-out: FDSS (% inhibition)/10uM

T1 sequence (O43497 whole entry): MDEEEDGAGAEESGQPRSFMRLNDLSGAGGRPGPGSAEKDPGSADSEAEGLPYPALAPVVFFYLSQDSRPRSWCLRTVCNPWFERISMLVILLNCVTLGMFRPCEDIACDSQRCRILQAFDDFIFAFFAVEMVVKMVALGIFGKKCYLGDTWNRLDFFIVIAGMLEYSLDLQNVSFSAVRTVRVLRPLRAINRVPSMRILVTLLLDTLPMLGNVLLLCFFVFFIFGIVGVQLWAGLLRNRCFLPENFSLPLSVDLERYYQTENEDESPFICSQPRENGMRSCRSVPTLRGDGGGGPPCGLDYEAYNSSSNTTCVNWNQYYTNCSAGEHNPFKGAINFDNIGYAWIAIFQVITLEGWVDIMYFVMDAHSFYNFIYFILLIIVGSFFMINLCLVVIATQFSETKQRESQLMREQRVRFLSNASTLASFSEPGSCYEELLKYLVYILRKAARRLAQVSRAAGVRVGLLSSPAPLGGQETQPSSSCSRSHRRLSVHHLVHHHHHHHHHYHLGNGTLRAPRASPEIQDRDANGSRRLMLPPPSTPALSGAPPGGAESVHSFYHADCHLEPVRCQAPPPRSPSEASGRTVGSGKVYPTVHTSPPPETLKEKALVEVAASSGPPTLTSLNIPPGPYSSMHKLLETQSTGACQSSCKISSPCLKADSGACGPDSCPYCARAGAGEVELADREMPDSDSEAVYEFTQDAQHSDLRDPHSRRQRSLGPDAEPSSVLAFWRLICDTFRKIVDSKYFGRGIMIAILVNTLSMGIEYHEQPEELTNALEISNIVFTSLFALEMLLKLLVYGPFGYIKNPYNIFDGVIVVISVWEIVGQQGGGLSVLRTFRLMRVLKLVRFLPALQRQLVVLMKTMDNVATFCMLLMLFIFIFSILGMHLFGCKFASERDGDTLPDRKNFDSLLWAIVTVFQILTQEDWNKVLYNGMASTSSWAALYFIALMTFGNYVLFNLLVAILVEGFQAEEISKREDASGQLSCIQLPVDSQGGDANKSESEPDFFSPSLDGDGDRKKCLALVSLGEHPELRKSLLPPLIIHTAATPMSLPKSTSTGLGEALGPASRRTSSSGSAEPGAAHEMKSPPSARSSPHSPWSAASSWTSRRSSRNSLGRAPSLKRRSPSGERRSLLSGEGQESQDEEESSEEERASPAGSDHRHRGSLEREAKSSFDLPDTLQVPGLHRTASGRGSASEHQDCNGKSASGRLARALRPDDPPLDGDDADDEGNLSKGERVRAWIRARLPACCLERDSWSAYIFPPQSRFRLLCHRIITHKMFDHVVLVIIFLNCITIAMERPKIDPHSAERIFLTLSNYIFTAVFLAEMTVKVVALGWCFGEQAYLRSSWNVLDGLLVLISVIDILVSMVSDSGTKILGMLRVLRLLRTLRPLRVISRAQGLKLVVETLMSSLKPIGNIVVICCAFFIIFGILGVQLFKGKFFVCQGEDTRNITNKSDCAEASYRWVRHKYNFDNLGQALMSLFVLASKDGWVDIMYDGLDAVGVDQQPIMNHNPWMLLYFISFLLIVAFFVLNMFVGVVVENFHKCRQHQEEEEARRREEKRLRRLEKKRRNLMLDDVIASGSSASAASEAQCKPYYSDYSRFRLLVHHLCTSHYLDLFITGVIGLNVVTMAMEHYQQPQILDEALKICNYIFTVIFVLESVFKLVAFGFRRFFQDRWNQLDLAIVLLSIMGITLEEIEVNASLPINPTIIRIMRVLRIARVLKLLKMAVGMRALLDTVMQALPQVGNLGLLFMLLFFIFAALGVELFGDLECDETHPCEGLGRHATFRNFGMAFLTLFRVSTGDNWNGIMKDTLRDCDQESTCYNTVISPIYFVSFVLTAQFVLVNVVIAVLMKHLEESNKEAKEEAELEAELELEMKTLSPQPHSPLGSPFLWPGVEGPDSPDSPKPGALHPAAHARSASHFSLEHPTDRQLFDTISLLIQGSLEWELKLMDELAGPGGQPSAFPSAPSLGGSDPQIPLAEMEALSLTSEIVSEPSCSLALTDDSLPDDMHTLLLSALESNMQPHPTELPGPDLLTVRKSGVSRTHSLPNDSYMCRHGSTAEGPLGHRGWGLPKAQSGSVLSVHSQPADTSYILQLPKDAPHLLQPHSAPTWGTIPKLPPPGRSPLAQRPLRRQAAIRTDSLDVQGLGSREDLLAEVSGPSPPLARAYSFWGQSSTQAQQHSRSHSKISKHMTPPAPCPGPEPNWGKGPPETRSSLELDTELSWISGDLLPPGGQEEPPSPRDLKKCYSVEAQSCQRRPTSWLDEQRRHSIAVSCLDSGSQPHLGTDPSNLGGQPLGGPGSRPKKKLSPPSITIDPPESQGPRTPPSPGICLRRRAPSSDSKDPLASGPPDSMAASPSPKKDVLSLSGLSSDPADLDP

Row | Compound | melting point [°C] | inhibition at 10 µM [1, 2] [%] | inhibition at 10 µM [1, 3] [%]
1 | Cc1ccc(N=C2SCC(CC(=O)Nc3ccc(Cl)cc3F)N2C)cc1.Cl (stereo not shown) [KHG23069, [2-(4-methylphenylimino)-3-methyl-1,3-thiazolidine-4-yl]-N-(4-chloro-2-fluorophenyl)-acetamide hydrochloride] | 243 to 245 | 4.33 | 
2 | CC(C)c1ccc(NC(=O)CC2C(C)SC(=NC3CCCCCC3)N2C)cc1.Cl (stereo not shown) [KHG24519, (2-cycloheptylimino-3,5-dimethyl-1,3-thiazolidine-4-yl)-N-(4-isopropylphenyl)-acetamide hydrochloride] | 260 to 262 |  | 55.7
3 | CC1SC(=NC2CCCCC2)N(C)C1CC(=O)Nc1cc(CF)cc(CF)c1.Cl (stereo not shown) [KHG24522, (2-cyclohexylimino-3,5-dimethyl-1,3-thiazolidine-4-yl)-N-(3,5-difluoromethylphenyl)-acetamide hydrochloride] | 244 to 246 |  | 47.9
4 | CC1SC(=NC2CCCCCC2)N(C)C1CC(=O)Nc1ccc(OC(F)(F)F)cc1.Cl (stereo not shown) [KHG24647, (2-cycloheptylimino-3,5-dimethyl-1,3-thiazolidine-4-yl)-N-(4-trifluoromethoxyphenyl)-acetamide hydrochloride] | 247 to 271 |  | 62.4
5 | CN1C(=NC2CCCCCC2)SCC1C(=O)Nc1cc(F)ccc1F.Cl (stereo not shown) [KHG24626, (2-cycloheptylimino-3-methyl-1,3-thiazolidine-4-yl)-N-(2,5-difluorophenyl)-carboxamide hydrochloride] | 187.9 |  | 42.6
6 | CC(C)c1ccc(NC(=O)CC2CSC(=Nc3ccc(C(F)(F)F)cc3)N2C)cc1.Cl (stereo not shown) [KHG21943, [2-(4-trifluoromethylphenylimino)-3-methyl-1,3-thiazolidine-4-yl]-N-(4-isopropylphenyl)-acetamide hydrochloride] | 238 to 242.8 | -2.56 | 
7 | CCCCN1C(=NC23CC4CC(CC(C4)C2)C3)SCC1CC(=O)Nc1ccc(C(F)(F)F)cc1.Cl (stereo not shown) [KHG24777, [2-(1-adamantylimino)-3-(n-butyl)-1,3-thiazolidine-4-yl]-N-(4-trifluoromethylphenyl)-acetamide hydrochloride] | 220 |  | 49.2
8 | COc1cccc(NC(=O)CC2CSC(=NC3CCCCC3)N2C)c1.Cl (stereo not shown) [KHG24076, (2-cyclohexylimino-3-methyl-1,3-thiazolidine-4-yl)-N-(3-methoxyphenyl)-acetamide hydrochloride] | 156 to 158 |  | 39.9
9 | CCN1C(=NC2CCCCC2)SCC1CC(=O)Nc1cc(Cl)cc(Cl)c1.Cl (stereo not shown) [KHG24414, (2-cyclohexylimino-3-ethyl-1,3-thiazolidine-4-yl)-N-(3,5-dichlorophenyl)-acetamide hydrochloride] | 100.5 |  | 61
10 | Cl.O=C(CC1CSC(=NC2CCCCC2)N1C1CC1)Nc1ccc(C(F)(F)F)cc1 (stereo not shown) [KHG24268, [2-cyclohexylimino-3-cyclopropyl-1,3-thiazolidine-4-yl]-N-(4-trifluoromethylphenyl)-acetamide hydrochloride] | 240.8 |  | 58.7
11 | CCCN1C(=NC23CC4CC(CC(C4)C2)C3)SCC1CC(=O)Nc1ccc(C)cc1.Cl (stereo not shown) [KHG24813, [2-(1-adamantylimino)-3-n-propyl-1,3-thiazolidine-4-yl]-N-(4-methylphenyl)-acetamide hydrochloride] | 239 |  | 61.6
12 | CCN1C(=NC23CC4CC(CC(C4)C2)C3)SCC1CC(=O)Nc1ccc(C(C)C)cc1.Cl (stereo not shown) [KHG24819, [2-(1-adamantylimino)-3-ethyl-1,3-thiazolidine-4-yl]-N-(4-isopropylphenyl)-acetamide hydrochloride] | 158 |  | 69.2
13 | CCCN1C(=NC2CCCCC2)SCC1CC(=O)Nc1ccc(C(C)C)cc1.Cl (stereo not shown) [KHG24294, [2-cyclohexylimino-3-(n-propyl)-1,3-thiazolidine-4-yl]-N-(4-isopropylphenyl)-acetamide hydrochloride] | 207 |  | 65.7
14 | Cl.O=C(CC1CSC(=NC2CCCCC2)N1C1CC1)Nc1ccc(Br)cc1 (stereo not shown) [KHG24273, [2-cyclohexylimino-3-cyclopropyl-1,3-thiazolidine-4-yl]-N-(4-bromophenyl)-acetamide hydrochloride] | 188.9 |  | 48.5
15 | CCCCN1C(=NC2CCCCC2)SCC1CC(=O)Nc1ccc(C)cc1Cl.Cl (stereo not shown) [KHG24421, (2-cyclohexylimino-3-(n-butyl)-1,3-thiazolidine-4-yl)-N-(2-chloro-4-methylphenyl)-acetamide hydrochloride] | 143 to 144 |  | 65.8
16 | CC(C)c1ccc(N=C2SCC(CC(=O)Nc3ccc(Cl)cc3F)N2C)cc1.Cl (stereo not shown) [KHG23071, [2-(4-isopropylphenylimino)-3-methyl-1,3-thiazolidine-4-yl]-N-(4-chloro-2-fluorophenyl)-acetamide hydrochloride] | 237 to 238 | 15.5 | 
17 | CCCCc1ccc(NC(=O)CC2CSC(=NC34CC5CC(CC(C5)C3)C4)N2CC)cc1.Cl (stereo not shown) [KHG24820, [2-(1-adamantylimino)-3-ethyl-1,3-thiazolidine-4-yl]-N-(4-n-butylphenyl)-acetamide hydrochloride] | 141 |  | 58
18 | CCc1ccc(NC(=O)CC2C(C)SC(=NC3CCCCCC3)N2C)cc1.Cl (stereo not shown) [KHG24517, (2-cycloheptylimino-3,5-dimethyl-1,3-thiazolidine-4-yl)-N-(4-ethylphenyl)-acetamide hydrochloride] | 262 to 264 |  | 49.6
19 | CCCCN1C(=NC2CCCCC2)SCC1CC(=O)Nc1ccc(Oc2ccccc2)cc1.Cl (stereo not shown) [KHG24281, [2-cyclohexylimino-3-(n-butyl)-1,3-thiazolidine-4-yl]-N-(4-phenoxyphenyl)-acetamide hydrochloride] | 213.3 |  | 31.4
20 | CC1SC(=NC2CCCCC2)N(C)C1CC(=O)Nc1ccc(C(F)(F)F)cc1.Cl (stereo not shown) [KHG24527, (2-cyclohexylimino-3,5-dimethyl-1,3-thiazolidine-4-yl)-N-(4-trifluoromethylphenyl)-acetamide hydrochloride] | 190 to 192 |  | 47
21 | CC1SC(=NC2CCCC2)N(C)C1CC(=O)Nc1ccc(C(C)(C)C)cc1.Cl (stereo not shown) [KHG24656, (2-cyclopentylimino-3,5-dimethyl-1,3-thiazolidine-4-yl)-N-(4-t-butylphenyl)-acetamide hydrochloride] | 220 to 223 |  | 46.1
22 | Cc1ccccc1CNC(=O)CC1CSC(=NC2CCCCC2)N1C.Cl (stereo not shown) [KHG24082, (2-cyclohexylimino-3-methyl-1,3-thiazolidine-4-yl)-N-(2-methylbenzyl)-acetamide hydrochloride] | 220 to 221 |  | 37.4
23 | CC(C)c1ccc(NC(=O)CC2CSC(=NCCc3ccccc3)N2C)cc1.Cl (stereo not shown) [KHG24220, (2-phenethylimino-3-methyl-1,3-thiazolidine-4-yl)-N-(4-isopropylphenyl)-acetamide hydrochloride] | 225 |  | 40.8
